The text below walks through data of PubChem BioAssay (NCI).

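Following 48 hours of exposure in 96-well plates, responses at five concentrations were used to interpolate endpoints linearly. Abbreviation: GI50, concentration required for 50% inhibition of growth. The concentration for full growth arrest is given as TGI.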 Some results are limits rather than exact numbers.

One assay deals with HCT-116 colon. Kind of assay: inhibition of tumour cell growth, NCI panel, 48 h.
`C[C@H]1[C@H](C)CC[C@]2(C(=O)NCCNCCN)CC[C@]3(C)C(=CC[C@@H]4[C@@]5(C)CCC(=O)C(C)(C)[C@@H]5CC[C@]43C)[C@H]12`: the GI50 is 1.71 µM and the TGI amounted to 3.18 µM.
Take `COc1ccc(CC(C)C(C)Cc2ccc(OC)c(OC)c2)cc1OC` (stereo not drawn): the GI50 was 1280 µM and the TGI was over 1400 µM.
`O=C1C2=C(c3ccccc31)C(c1ccccc1Cl)N1C(=O)CCSC1=N2` (stereo not drawn) returned a TGI of over 100 µM.
Regarding `Cn1c2ccccc2c2c(=O)c3ccccc3[nH]c21`, the GI50 is 17.6 µM and the TGI came out at 52.9 µM.

The next assay has as its system U251 CNS. The experiment in a line: inhibition of tumour cell growth, NCI panel, 48 h.
Molecule `CC1(c2ccccc2)CC(c2ccccc2)=NO1` (stereo not drawn) came in with a TGI of over 100 µM.
The same measure, in the same setting: next, `COc1cccc(/C=C2\CCC(C)(CN(C)C)C2=O)c1` (stereo not drawn): over 100 µM.
For the molecule `CCN(CC)CCNC(=O)c1cn2ncnc(Oc3ccc(NC(=O)Nc4ccc(Cl)c(C(F)(F)F)c4)c(F)c3)c2c1C`, the GI50 was 1.59 µM and the TGI worked out at 3.07 µM.
As for `Cl[Si]1(Cl)Oc2ccccc2O[Si](Cl)(Cl)Oc2ccccc2O1`, the TGI is over 100 µM.
The same measure, in the same setting: next, `C=CCC1[C@@H](C(C)(C)C(C(C)=O)C(=O)C(=O)OC)OC(C(C)(C)C)N1C(=O)OC` (stereo partly drawn): over 100 µM; `CCOC(=O)C(=O)Nc1ccccc1C(F)(F)F`: over 100 µM; `CCOC(=O)/C(=C/c1cccc(OC)c1)N(CC)CC`: over 100 µM.
The same measure, in the same setting: the value for `C=CCOC(=O)CC[N+]1=CCC(c2ccccc2)(c2ccccc2)O1` was over 100 µM; that for `Cc1c(C(=O)CSc2nc3ccccc3c(=O)n2-c2ccccc2)c(=O)n(-c2ccccc2)n1C` was 69.2 µM.
The same measure, in the same setting: the value for `C#CCC(N)(CO)C(=O)O` (stereo not drawn) was over 100 µM; that for `COc1cc2cnc3c4ccccc4ccc3c2cc1OC` was over 100 µM.
For `O=C(c1ccc2ccccc2c1)c1c(C(F)(F)F)n([O-])c2ccc(Cl)cc2[n+]1=O`, the GI50 is 1.67 µM and the TGI was found to be 3.03 µM.
In turn, `O=c1ncccn1C1C=C(CO)C(O)C1O` (stereo not drawn) registered a TGI of over 50 µM.
The molecule `CCN(CC)CC(=O)N1CCc2c([nH]c3ccccc23)C1c1cccnc1` (stereo not drawn) returned a TGI of over 100 µM.
Consider `CCOC1Oc2ccccc2-c2oc(=O)c(Sc3ccc(C)cc3)cc21` (stereo not drawn), for which the GI50 was 25.1 µM and the TGI was over 100 µM.
On the same counts, the results for `CCSc1nc(N)c2cn[nH]c2n1` are 43.1 µM and over 100 µM.
Turning to `N=S(c1ccccc1)c1ccccc1[N+](=O)[O-]` (stereo not drawn), the TGI worked out at 31.2 µM.
Same read-out and setting: the value for `CC1(Cc2ccccc2)NC(=S)NC1=O` (stereo not drawn) was over 100 µM; that for `Cc1ccc(S(=O)(=O)N/N=C(\c2nc3ccc([N+](=O)[O-])cc3[nH]c2=O)C(O)c2ccccc2Cl)cc1` (stereo not drawn) was over 100 µM.
With `O=c1c2c3c(sc2n2c(-c4cc(-c5ccccc5)nn4-c4ccccc4)nnc2n1Cc1ccccc1)CCCC3`, the GI50 is over 100 µM and the TGI was over 100 µM.
On to `C[C@H]1[C@H](C)CC[C@]2(C(=O)NCCNCCN)CC[C@]3(C)C(=CC[C@@H]4[C@@]5(C)CCC(=O)C(C)(C)[C@@H]5CC[C@]43C)[C@H]12`, for which the GI50 is 1.66 µM and the TGI was 3.17 µM.
On the same counts, the results for `COc1ccc(CC(C)C(C)Cc2ccc(OC)c(OC)c2)cc1OC` (stereo not drawn) are 802 µM and over 1400 µM.
Take `O=C1C2=C(c3ccccc31)C(c1ccccc1Cl)N1C(=O)CCSC1=N2` (stereo not drawn): the TGI is over 100 µM.
On to `Cn1c2ccccc2c2c(=O)c3ccccc3[nH]c21`, for which the GI50 is 35.8 µM and the TGI is over 100 µM.

The test system of another assay is IGROV1 ovarian. Kind of assay: inhibition of tumour cell growth, NCI panel, 48 h.
In turn, `CC1(c2ccccc2)CC(c2ccccc2)=NO1` (stereo not drawn) returned a TGI of over 100 µM.
Same read-out and setting: next, `COc1cccc(/C=C2\CCC(C)(CN(C)C)C2=O)c1` (stereo not drawn): over 100 µM.
On to `CCN(CC)CCNC(=O)c1cn2ncnc(Oc3ccc(NC(=O)Nc4ccc(Cl)c(C(F)(F)F)c4)c(F)c3)c2c1C`, for which the GI50 was 1.85 µM and the TGI was 3.5 µM.
With `Cl[Si]1(Cl)Oc2ccccc2O[Si](Cl)(Cl)Oc2ccccc2O1`, the TGI is over 100 µM.
On the same count and under the same terms, the value for `CCOC(=O)C(=O)Nc1ccccc1C(F)(F)F` was over 100 µM; that for `CCOC(=O)/C(=C/c1cccc(OC)c1)N(CC)CC` was over 100 µM; that for `C=CCOC(=O)CC[N+]1=CCC(c2ccccc2)(c2ccccc2)O1` was over 100 µM.
`Cc1c(C(=O)CSc2nc3ccccc3c(=O)n2-c2ccccc2)c(=O)n(-c2ccccc2)n1C` yielded a TGI of over 100 µM.
As for `c1ccc(Cn2cnc3ccc(-c4nc(-c5ccc6c(c5)ncn6C5CCCCC5)cn5ccnc45)cc32)cc1`, the GI50 is 2.14 µM and the TGI is over 100 µM.
The molecule `C#CCC(N)(CO)C(=O)O` (stereo not drawn) came in with a TGI of over 100 µM.
Same read-out and setting: next, `COc1cc2cnc3c4ccccc4ccc3c2cc1OC`: over 100 µM.
`O=C(c1ccc2ccccc2c1)c1c(C(F)(F)F)n([O-])c2ccc(Cl)cc2[n+]1=O`: the GI50 was 0.334 µM and the TGI worked out at 1.06 µM.
As for `CCN(CC)CC(=O)N1CCc2c([nH]c3ccccc23)C1c1cccnc1` (stereo not drawn), the TGI was over 100 µM.
For `CCOC1Oc2ccccc2-c2oc(=O)c(Sc3ccc(C)cc3)cc21` (stereo not drawn), the GI50 is 26 µM and the TGI was over 100 µM.
Taken in the same sequence, the figures for `CCSc1nc(N)c2cn[nH]c2n1` were 35.9 µM and over 100 µM.
In turn, `N=S(c1ccccc1)c1ccccc1[N+](=O)[O-]` (stereo not drawn) came in with a TGI of 32.9 µM.
Same read-out and setting: the value for `Cc1ccc(S(=O)(=O)N/N=C(\c2nc3ccc([N+](=O)[O-])cc3[nH]c2=O)C(O)c2ccccc2Cl)cc1` (stereo not drawn) was over 100 µM.
In the case of `C[C@H]1[C@H](C)CC[C@]2(C(=O)NCCNCCN)CC[C@]3(C)C(=CC[C@@H]4[C@@]5(C)CCC(=O)C(C)(C)[C@@H]5CC[C@]43C)[C@H]12`, the GI50 was 1.71 µM and the TGI came to 3.17 µM.
Taken in the same sequence, the figures for `COc1ccc(CC(C)C(C)Cc2ccc(OC)c(OC)c2)cc1OC` (stereo not drawn) were 800 µM and over 1400 µM.
As to `O=C1C2=C(c3ccccc31)C(c1ccccc1Cl)N1C(=O)CCSC1=N2` (stereo not drawn), the TGI is over 100 µM.
As to `Cn1c2ccccc2c2c(=O)c3ccccc3[nH]c21`, the GI50 is 64.3 µM and the TGI is over 100 µM.
